The source of these data is ChEMBL document CHEMBL4483862, “Open-source discovery of chemical leads for next-generation chemoprotective antimalarials” (2018).

pIC50: −log10 of the molar value.

For this experiment, the system named is Plasmodium berghei. In words: Luciferase/luciferin-expressing antifolate-resistant parasites were used to infect a culture of HepG2 cells that were pre-incubated with compounds. Infected hepatocytes emit light due to the luciferase reaction. Assay results are presented as the percent inhibition of light emission compared to control. […]. Format: functional. The following applies: sporozoite; for IC90: read-out: LUCIFERASE INFECTION ASSAY - IC90.

[1] abbreviates: read-out: LUCIFERASE INFECTION ASSAY - IC50.

The term pIC50 denotes −log10 of the IC50, conventionally taken in molar units. One may read the IC90 as the point of the concentration-response curve where the effect stands at 90%. In the case of `CCOC(=O)c1sc(N)c(C#N)c1CSc1nnnn1-c1ccccc1`, the concentration for an effect of 90% (IC90) is over 10 µM. Besides, the negative-log IC50 (pIC50) (HEPG2TOX_HILL_SLOPE 0.327, HEPG2TOX_R_SQUARED 0.288, read-out: LUCIFERASE INFECTION ASSAY - IC50) was under 5.00.

With `Fc1ccc(-c2nc3ccc(Cl)cc3[nH]2)cc1`, the concentration for an effect of 90% (IC90) is over 13.4 µM. Under setting [1], the pIC50 was under 4.87.

Take `Cc1cc(C(=O)NCCc2cccc(F)c2)c(C)n1C(C)C`: the IC90 stood at 0.0364 µM. Moreover, for the setting “PBLUC_HILL_SLOPE 3.76, PBLUC_R_SQUARED 0.418, read-out: LUCIFERASE INFECTION ASSAY - IC50”, the pIC50 was 7.69.

As for `O=C(Nc1ccc(Oc2ccc(F)cc2)nc1)c1cccc(-n2cnnn2)c1`, the IC90 was over 10 µM. The pIC50 (PBLUC_HILL_SLOPE 8.75, PBLUC_R_SQUARED 0.449, read-out: LUCIFERASE INFECTION ASSAY - IC50) was 5.06.

For `Cc1nc(N/N=C/c2ccc(O)cc2)c2cnn(-c3ccccc3)c2n1`, the IC90 was over 10 µM. In addition, the pIC50 under setting [1] was under 5.00.

Take `Cc1c(C(=O)Nc2nc3c(s2)CCCCC3)[nH]c2c1C(=O)CC(C)(C)C2`: the 90% effect concentration (IC90) was over 10 µM. Under “PBLUC_HILL_SLOPE 1.1, PBLUC_R_SQUARED 0.304, read-out: LUCIFERASE INFECTION ASSAY - IC50”, the negative-log IC50 (pIC50) was 5.66.

With `Cc1nn(-c2ccccn2)c2c1C(c1ccccc1Cl)C1=C(N2)c2ccccc2C1=O` (centres undefined), the IC90 is over 10 µM. For the same molecule, the pIC50 (PBLUC_HILL_SLOPE 22.1, PBLUC_R_SQUARED 0.617, read-out: LUCIFERASE INFECTION ASSAY - IC50) is 5.04.

For the molecule `O=C1C=C(c2ccccc2)C(=O)N1Nc1ccc(Cl)cc1Cl`, the IC90 was over 9.9 µM. Under “HEPG2TOX_HILL_SLOPE 5.8, HEPG2TOX_R_SQUARED 0.44, PBLUC_HILL_SLOPE 7.31, PBLUC_R_SQUARED 0.6, read-out: LUCIFERASE INFECTION ASSAY - IC50”, the negative-log IC50 (pIC50) is 5.04.

Consider `NC(c1csc(NC(=O)Nc2cccc(C(F)(F)F)c2)n1)C1CCCCC1` (centres undefined), for which the IC90 amounted to 6.65 µM. Moreover, the pIC50 (PBLUC_HILL_SLOPE 23.3, PBLUC_R_SQUARED 0.126, read-out: LUCIFERASE INFECTION ASSAY - IC50) is 5.22.

Take `COc1ccc(-c2cc(C(=O)NNC(=O)CC(C)C)[nH]n2)cc1`: the concentration for an effect of 90% (IC90) is over 10 µM. Besides, under setting [1], the pIC50 was under 5.00.

As to `CCn1c2ccccc2c2cc([N+](=O)[O-])ccc21`, the IC90 was over 13.7 µM. For the same molecule, where the note is “HEPG2TOX_HILL_SLOPE 12, HEPG2TOX_R_SQUARED 0.261, PBLUC_HILL_SLOPE 16.8, PBLUC_R_SQUARED 0.0444, read-out: LUCIFERASE INFECTION ASSAY - IC50”, the negative logarithm of the IC50 (pIC50) is 4.86.

Take `CN(CCCN1C(=O)c2ccccc2C1=O)CC(=O)N(C)C`: the IC90 was over 10 µM. Moreover, the pIC50 under setting [1] was under 5.00.

Turning to `N#Cc1ccc(CN2CCN(CC(=O)Nc3nc(-c4c[nH]c5ccccc45)cs3)CC2)cc1`, the IC90 was 3.45 µM. In addition, the pIC50 (HEPG2TOX_HILL_SLOPE 1.59, HEPG2TOX_R_SQUARED 0.927, PBLUC_HILL_SLOPE 64.1, PBLUC_R_SQUARED 0.488, read-out: LUCIFERASE INFECTION ASSAY - IC50) is 5.48.

Consider `Cc1ccc2cc(CN(CC(C)C)C(=O)c3cccc(Cl)c3)c(=O)[nH]c2c1`, for which the IC90 was 4.61 µM. The negative-log IC50 (pIC50) (FFLUC_HILL_SLOPE 2.55, FFLUC_R_SQUARED 0.111, HEPG2TOX_HILL_SLOPE 13.7, HEPG2TOX_R_SQUARED 0.575, PBLUC_HILL_SLOPE 6.1, PBLUC_R_SQUARED 0.569, read-out: LUCIFERASE INFECTION ASSAY - IC50) was 5.49.

Take `Cc1ccnc(NC(=O)Cc2cnn(-c3ccccc3)c2)c1`: the concentration for an effect of 90% (IC90) stood at 9.95 µM. For the same molecule, the negative-log IC50 (pIC50) (HEPG2TOX_HILL_SLOPE 17.5, HEPG2TOX_R_SQUARED 0.943, PBLUC_HILL_SLOPE 16.3, PBLUC_R_SQUARED 0.0531, read-out: LUCIFERASE INFECTION ASSAY - IC50) is 5.06.

As to `COc1ccc(S(=O)(=O)N2[C@@H]3CC[C@@H](C3)[C@H]2c2nc3c(OCC4CCOCC4)cccc3[nH]2)c(OC)c1`, the IC90 was over 10 µM. The negative-log IC50 (pIC50) (PBLUC_HILL_SLOPE 2.43, PBLUC_R_SQUARED 0.162, read-out: LUCIFERASE INFECTION ASSAY - IC50) was 5.09.

Take `Cc1cc(N2CCN(C(=O)C(C)Oc3ccc(F)cc3)CC2)nc(C(C)C)n1` (centres undefined): the concentration for an effect of 90% (IC90) is over 10 µM. Besides, under setting [1], the negative logarithm of the IC50 (pIC50) is under 5.00.

As to `Clc1ccc2c(NCc3ccccc3)ccnc2c1`, the IC90 came out at 4.19 µM. Under “PBLUC_HILL_SLOPE 8.08, PBLUC_R_SQUARED 0.339, read-out: LUCIFERASE INFECTION ASSAY - IC50”, the pIC50 was 5.50.

With `O=C(/C=C/c1ccccc1)c1ccc(-n2nncc2-c2ccccc2)cc1`, the IC90 is over 10 µM. In addition, for the setting “HEPG2TOX_HILL_SLOPE 6.47, HEPG2TOX_R_SQUARED 0.294, read-out: LUCIFERASE INFECTION ASSAY - IC50”, the negative logarithm of the IC50 (pIC50) is under 5.00.

For the molecule `CCCNC(=O)c1c(NC(=O)c2cc(F)ccc2F)nc2ccc(C)cn12`, the 90% effect concentration (IC90) was 1.18 µM. In addition, the pIC50 (FFLUC_HILL_SLOPE 10.5, FFLUC_R_SQUARED 0.751, HEPG2TOX_HILL_SLOPE 1.41, HEPG2TOX_R_SQUARED 0.982, PBLUC_HILL_SLOPE 15, PBLUC_R_SQUARED 0.726, read-out: LUCIFERASE INFECTION ASSAY - IC50) is 5.99.

`CSc1sc(-c2ccnc(SCc3ccc(Cl)cc3)n2)c(-c2ccccc2)c1C#N`: the IC90 was over 7.08 µM. Under “PBLUC_HILL_SLOPE 3.73, PBLUC_R_SQUARED 0.295, read-out: LUCIFERASE INFECTION ASSAY - IC50”, the pIC50 was 5.33.

Take `COc1ccc(-c2cncc(-c3ccc(N)cc3)n2)cc1`: the IC90 amounted to 11.7 µM. Besides, the pIC50 under setting [1] is 5.11.

As to `CC(C)NC(=O)c1c(NC(=O)c2ccc(C#N)cc2)nc2ccccn12`, the concentration for an effect of 90% (IC90) was over 9.5 µM. Besides, the pIC50 (HEPG2TOX_HILL_SLOPE 1.96, HEPG2TOX_R_SQUARED 0.946, PBLUC_HILL_SLOPE 9.83, PBLUC_R_SQUARED 0.197, read-out: LUCIFERASE INFECTION ASSAY - IC50) was 5.09.

Turning to `Cc1ccc(-n2c(SCC(=O)NCCN3C(=O)S/C(=C\c4ccc(C(C)(C)C)cc4)C3=O)nc3sc4c(c3c2=O)CCCC4)c(C)c1`, the IC90 was over 10 µM. In addition, the negative-log IC50 (pIC50) under setting [1] is under 5.00.

`CCc1ccccc1Nc1nc(N)nc(CN2CCN(S(=O)(=O)Cc3ccccc3)CC2)n1`: the IC90 was over 10 µM. In addition, the negative logarithm of the IC50 (pIC50) under setting [1] was under 5.00.

In the case of `O=C(Nc1ccc(-c2nc3ccccc3[nH]2)cc1)c1cnn(-c2ccccc2)c1C1CC1`, the IC90 worked out at 3.59 µM. Further, the pIC50 under setting [1] was 5.48.

Take `CC(C)c1ccc(Nc2nccc3nc(-c4cccc(C(F)(F)F)c4)[nH]c23)cc1`: the IC90 was over 10 µM. Moreover, the pIC50 (HEPG2TOX_HILL_SLOPE 8.02, HEPG2TOX_R_SQUARED 0.493, PBLUC_HILL_SLOPE 1.32, PBLUC_R_SQUARED 0.475, read-out: LUCIFERASE INFECTION ASSAY - IC50) is 5.39.

As to `Cc1noc(C)c1COC(=O)CC(c1ccccc1)c1ccccc1`, the IC90 was over 10 µM. For the same molecule, the negative logarithm of the IC50 (pIC50) under setting [1] is under 5.00.

On to `COc1ccc(N2C(=O)c3ccccc3C(C=NNC(=O)c3ccc(C)cc3)C2=O)cc1OC` (centres undefined), for which the IC90 was found to be 5.03 µM. In addition, the pIC50 (HEPG2TOX_HILL_SLOPE 8.3, HEPG2TOX_R_SQUARED 0.704, PBLUC_HILL_SLOPE 7.2, PBLUC_R_SQUARED 0.273, read-out: LUCIFERASE INFECTION ASSAY - IC50) was 5.43.

With `Oc1cccc(-c2cnc3ccc(-c4cccc5ncccc45)nn23)c1`, the IC90 was over 10 µM. The negative-log IC50 (pIC50) (HEPG2TOX_HILL_SLOPE 3.26, HEPG2TOX_R_SQUARED 0.941, PBLUC_HILL_SLOPE 1.24, PBLUC_R_SQUARED 0.528, read-out: LUCIFERASE INFECTION ASSAY - IC50) was 5.74.

As to `Cc1nc(-c2ccc(CCNc3ncnc4sccc34)cc2)cs1`, the IC90 was over 10 µM. Besides, under “HEPG2TOX_HILL_SLOPE 0.209, HEPG2TOX_R_SQUARED 0.388, PBLUC_HILL_SLOPE 0.293, PBLUC_R_SQUARED 0.513, read-out: LUCIFERASE INFECTION ASSAY - IC50”, the pIC50 was 7.92.

Turning to `COc1ccc(Nc2nc(NCC3CC3)nc3cc(-c4ccccc4)sc23)cc1OC`, the 90% effect concentration (IC90) is over 7.63 µM. The negative-log IC50 (pIC50) (HEPG2TOX_HILL_SLOPE 1.76, HEPG2TOX_R_SQUARED 0.98, PBLUC_HILL_SLOPE 10.6, PBLUC_R_SQUARED 0.159, read-out: LUCIFERASE INFECTION ASSAY - IC50) was 5.20.

As for `Cc1cccc(Cn2nc(C(C)(C)C)cc2C(=O)Nc2ccc(C(C)(C)C)cc2)c1`, the IC90 is over 8.18 µM. Further, the pIC50 (FFLUC_HILL_SLOPE 3.48, FFLUC_R_SQUARED 0.696, read-out: LUCIFERASE INFECTION ASSAY - IC50) is under 5.09.

For `CN(C)c1ccccc1-c1cn2c(-c3ccc4c(ccn4C)c3)cnc2cn1`, the concentration for an effect of 90% (IC90) was determined as 1.24 µM. In addition, for the setting “FFLUC_HILL_SLOPE 0.352, FFLUC_R_SQUARED 0.0452, HEPG2TOX_HILL_SLOPE 0.416, HEPG2TOX_R_SQUARED 0.805, PBLUC_HILL_SLOPE 0.654, PBLUC_R_SQUARED 0.684, read-out: LUCIFERASE INFECTION ASSAY - IC50”, the pIC50 is 7.37.

Take `O=C(Nc1cccc(Cl)c1)Nc1nc2ccccc2[nH]1`: the IC90 was over 10 µM. Besides, the pIC50 under setting [1] was under 5.00.

Consider `Cc1nc2ccccc2nc1SC(C)C(=O)c1c[nH]c2ccccc12` (centres undefined), for which the IC90 came out at 1.98 µM. In addition, the negative logarithm of the IC50 (pIC50) (HEPG2TOX_HILL_SLOPE 0.739, HEPG2TOX_R_SQUARED 0.941, PBLUC_HILL_SLOPE 2.85, PBLUC_R_SQUARED 0.882, read-out: LUCIFERASE INFECTION ASSAY - IC50) was 6.04.

In the case of `C=CCNc1nnc(SCC(=O)Nc2c(Cl)cc(Cl)cc2C(=O)O)s1`, the 90% effect concentration (IC90) is over 10 µM. Besides, the negative logarithm of the IC50 (pIC50) under setting [1] was under 5.00.
